Tests used:
Type in all cases: biochemical
[1] = target: Btk (Homo sapiens, UniProt Q06187); assay: Btk kinase activity, TR-FRET assay; settings: read-out: Btk (IC50)
Outline: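 Enzyme (Btk 0.5 nM; Lck 6 nM) reacted 1 h with inhibitor, ATP at Km and biotin-peptide substrate in pH 7.4 buffer, 10% DMSO. Phosphopeptide detected by Eu-p-Tyr100 antibody plus streptavidin-APC (665/615 nm). IC50 calculated from fitted Ki(app) via ATP/Km correction plus half total enzyme.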

[2] = target: Lck (Homo sapiens, UniProt P06239); assay: Lck kinase activity, TR-FRET assay; settings: read-out: LCK (IC50)
Lck, sequence (P06239 whole entry, species assumed): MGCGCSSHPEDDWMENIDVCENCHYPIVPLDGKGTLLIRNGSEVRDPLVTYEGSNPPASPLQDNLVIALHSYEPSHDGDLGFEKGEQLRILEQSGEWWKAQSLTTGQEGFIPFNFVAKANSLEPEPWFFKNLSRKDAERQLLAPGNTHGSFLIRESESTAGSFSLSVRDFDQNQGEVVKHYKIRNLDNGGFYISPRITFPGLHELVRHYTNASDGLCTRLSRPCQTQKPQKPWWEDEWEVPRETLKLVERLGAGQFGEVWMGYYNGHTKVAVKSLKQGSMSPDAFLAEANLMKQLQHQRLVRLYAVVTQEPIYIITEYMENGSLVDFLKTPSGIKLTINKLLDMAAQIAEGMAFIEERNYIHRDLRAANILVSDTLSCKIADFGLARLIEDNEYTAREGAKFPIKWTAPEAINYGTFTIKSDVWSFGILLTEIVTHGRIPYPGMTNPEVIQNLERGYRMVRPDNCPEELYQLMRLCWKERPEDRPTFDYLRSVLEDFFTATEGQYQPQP
Description: Btk kinase activity is determined using a time-resolved fluorescence resonance energy transfer (TR-FRET) methodology. Measurements are performed in a reaction volume of 50 μL using 96-well assay plates. Kinase enzyme, inhibitor, ATP (at the Km for the kinase), and 1 […] (Biotin-AVLESEEELYSSARQ-NH2) are incubated in a reaction buffer composed of 20 mM Tris, 50 mM NaCl, MgCl2 (5-25 mM depending on the kinase), MnCl2 (0-10 mM), 1 mM DTT, 0.1 mM EDTA, 0.01% bovine serum albumin, 0.005% Tween-20, and 10% DMSO at pH 7.4 for one hour. The reaction is quenched by the addition of 1.2 equivalents of EDTA (relative to divalent cation) in 25 μL of 1× Lance buffer (Perkin-Elmer). Streptavidin-APC (Perkin-Elmer) and Eu-labeled p-Tyr100 antibody (Perkin-Elmer) in 1× Lance buffer are added in a 25 μL volume to give final concentrations of 100 nM and 2.5 nM, respectively, and the mixture is allowed to incubate for one hour. The TR-FRET signal is measured on a multimode plate reader with an excitation wavelength (λEx) of 330 nm and detection wavelengths (λEm) of 615 and 665 nm. Activity is determined by the ratio of the fluorescence at 665 nm to that at 615 nm. For each compound, enzyme activity is measured at various concentrations of compound. Negative control reactions are performed in the absence of inhibitor in replicates of six, and two no-enzyme controls are used to determine baseline fluorescence levels. Inhibition constants, Ki(app), ware obtained using the program BatchKi (Kuzmic et al. (2000), Anal. Biochem. 286:45-50). IC50s are obtained according to the equation: IC50={Ki(app)/(1+[ATP]/Km^ATP)}+[E]total/2;
For all kinases, [ATP]=Km^ATP, [Btk]total=0.5 nM and [Lck]total=6 nM.

[3] = target: EGFR (Homo sapiens, UniProt P00533); assay: Inhibition of a panel of kinases, in vitro HotSpot kinase assay: EGFR
EGFR, sequence (P00533 25-1210): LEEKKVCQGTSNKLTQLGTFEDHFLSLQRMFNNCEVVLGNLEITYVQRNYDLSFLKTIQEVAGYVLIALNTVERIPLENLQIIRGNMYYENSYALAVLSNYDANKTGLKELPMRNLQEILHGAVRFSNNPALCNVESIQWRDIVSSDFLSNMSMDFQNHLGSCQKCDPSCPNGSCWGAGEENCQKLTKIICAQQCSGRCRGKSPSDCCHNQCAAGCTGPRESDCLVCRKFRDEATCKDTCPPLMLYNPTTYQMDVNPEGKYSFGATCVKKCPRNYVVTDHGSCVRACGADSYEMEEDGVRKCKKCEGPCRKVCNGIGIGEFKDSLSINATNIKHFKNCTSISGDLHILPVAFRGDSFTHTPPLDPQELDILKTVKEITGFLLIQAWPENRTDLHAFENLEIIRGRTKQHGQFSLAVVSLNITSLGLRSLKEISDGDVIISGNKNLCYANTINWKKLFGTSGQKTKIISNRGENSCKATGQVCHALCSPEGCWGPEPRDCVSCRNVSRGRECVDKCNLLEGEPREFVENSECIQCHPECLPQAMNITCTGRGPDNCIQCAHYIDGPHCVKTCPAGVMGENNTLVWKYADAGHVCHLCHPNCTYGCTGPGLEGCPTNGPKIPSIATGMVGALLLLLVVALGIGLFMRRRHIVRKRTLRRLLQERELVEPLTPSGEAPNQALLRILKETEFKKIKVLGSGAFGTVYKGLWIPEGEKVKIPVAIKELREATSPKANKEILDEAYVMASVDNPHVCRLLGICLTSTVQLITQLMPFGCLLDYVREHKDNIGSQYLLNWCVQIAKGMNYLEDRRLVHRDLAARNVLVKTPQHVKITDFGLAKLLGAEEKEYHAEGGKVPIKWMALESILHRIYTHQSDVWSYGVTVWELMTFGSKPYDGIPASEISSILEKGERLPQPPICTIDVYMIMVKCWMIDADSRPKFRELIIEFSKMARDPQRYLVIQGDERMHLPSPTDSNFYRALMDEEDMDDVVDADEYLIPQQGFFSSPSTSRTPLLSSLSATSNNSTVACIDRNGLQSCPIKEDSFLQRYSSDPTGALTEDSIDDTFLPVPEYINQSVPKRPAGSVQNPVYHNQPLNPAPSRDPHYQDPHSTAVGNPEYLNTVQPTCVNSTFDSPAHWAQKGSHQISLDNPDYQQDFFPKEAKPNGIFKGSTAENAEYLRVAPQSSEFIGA
Description: The degree of inhibition of a panel of kinases is determined using the in vitro HotSpot kinase assay (purified enzymes, ^33P-ATP, an appropriate substrate and 1 uM ATP).

Btk, sequence (Q06187 whole entry): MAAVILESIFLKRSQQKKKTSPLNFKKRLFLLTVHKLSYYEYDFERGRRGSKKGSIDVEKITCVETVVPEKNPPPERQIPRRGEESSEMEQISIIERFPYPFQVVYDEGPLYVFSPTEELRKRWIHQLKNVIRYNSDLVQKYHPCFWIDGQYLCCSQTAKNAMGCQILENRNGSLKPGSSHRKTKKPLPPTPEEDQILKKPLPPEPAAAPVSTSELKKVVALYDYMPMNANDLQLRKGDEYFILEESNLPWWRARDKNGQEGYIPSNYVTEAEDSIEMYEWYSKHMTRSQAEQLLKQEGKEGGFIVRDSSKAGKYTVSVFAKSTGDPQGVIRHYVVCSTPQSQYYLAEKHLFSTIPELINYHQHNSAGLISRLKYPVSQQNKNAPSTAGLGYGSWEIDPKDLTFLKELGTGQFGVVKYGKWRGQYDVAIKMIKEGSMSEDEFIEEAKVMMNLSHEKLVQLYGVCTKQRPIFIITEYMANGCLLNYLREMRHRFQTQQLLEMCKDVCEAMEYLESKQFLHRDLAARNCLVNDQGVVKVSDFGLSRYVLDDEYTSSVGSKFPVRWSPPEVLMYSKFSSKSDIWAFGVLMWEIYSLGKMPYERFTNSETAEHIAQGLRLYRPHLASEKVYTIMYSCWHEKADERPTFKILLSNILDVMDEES

Structure (SMILES): CCNC(=O)N1CC[C@@H](Nc2n[nH]c3nccc(Oc4ccc(C(=O)Nc5ncc(C)s5)cc4)c23)C1 [compound 189]
- IC50 [1]: < 100 nM
- IC50 [2]: 1000 to 10000 nM
- IC50 [3]: > 10000 nM

Structure (SMILES): Cc1ccnc(NC(=O)c2ccc(Oc3ccnc4[nH]nc(N[C@@H]5CCCN(C(=O)N6CCOCC6)C5)c34)cc2)c1 [compound 91, N-(4-methylpyridin-2-yl)-4-[(3-{[(3R)-1-(morpholine-4-carbonyl)piperidin-3-yl]amino}-1H-pyrazolo[3,4-b]pyridin-4-yl)oxy]benzamide]
- IC50 [1]: < 100 nM
- IC50 [2]: 1000 to 10000 nM
- IC50 [3]: > 10000 nM

Structure (SMILES): N#C/C(=C\c1ccccn1)C(=O)N1CC[C@@H](Nc2n[nH]c3nccc(Oc4ccc(Oc5ccccc5)cc4)c23)C1 [compound 26, (2E)-2-[(E)-(3R)-3-{[4-(4-phenoxyphenoxy)-1H-pyrazolo[3,4-b]pyridin-3-yl]amino}pyrrolidine-1-carbonyl]-3-(pyridin-2-yl)prop-2-enenitrile]
- IC50 [1]: < 100 nM
- IC50 [2]: 100 to 1000 nM
- IC50 [3]: 100 to 1000 nM

Structure (SMILES): CN(C)C/C=C/C(=O)N1CC[C@@H](Oc2n[nH]c3nccc(Nc4ccc(Oc5ccccc5)cc4)c23)C1 [compound 14, (2E)-4-(dimethylamino)-1-[(3R)-3-({4-[(4-phenoxyphenyl)amino]-1H-pyrazolo[3,4-b]pyridin-3-yl}oxy)pyrrolidin-1-yl]but-2-en-1-one]
- IC50 [1]: < 100 nM
- IC50 [2]: < 100 nM
- IC50 [3]: < 100 nM

Structure (SMILES): CN(C/C=C/C(=O)N1CC[C@@H](Nc2n[nH]c3nccc(Oc4ccc(C(=O)Nc5cc(C(F)(F)F)ccn5)cc4)c23)C1)C1CC1 [compound 33, 4-[(3-{[(3R)-1-[(2E)-4-[cyclopropyl(methyl)amino]but-2-enoyl]pyrrolidin-3-yl]amino}-1H-pyrazolo[3,4-b]pyridin-4-yl)oxy]-N-[4-(trifluoromethyl)pyridin-2-yl]benzamide]
- IC50 [1]: < 100 nM
- IC50 [2]: 100 to 1000 nM
- IC50 [3]: 1000 to 10000 nM

Structure (SMILES): CCC(=O)N1CC[C@@H](Nc2n[nH]c3nccc(Oc4ccc(C(=O)Nc5nnc(C)[nH]5)cc4)c23)C1 [compound 75, N-(5-methyl-4H-1,2,4-triazol-3-yl)-4-[(3-{[(3R)-1-propanoylpyrrolidin-3-yl]amino}-1H-pyrazolo[3,4-b]pyridin-4-yl)oxy]benzamide]
- IC50 [1]: > 10000 nM
- IC50 [2]: > 10000 nM
- IC50 [3]: > 10000 nM

Structure (SMILES): CN(C/C=C/C(=O)N1CC[C@@H](Nc2n[nH]c3nccc(Nc4ccc(Oc5ccccc5)cc4)c23)C1)C1CC1 [compound 23, (2E)-4-[cyclopropyl(methyl)amino]-1-[(3R)-3-({4-[(4-phenoxyphenyl)amino]-1H-pyrazolo[3,4-b]pyridin-3-yl}amino)pyrrolidin-1-yl]but-2-en-1-one]
- IC50 [1]: < 100 nM
- IC50 [2]: < 100 nM
- IC50 [3]: 100 to 1000 nM

Structure (SMILES): CCCc1ccnc(NC(=O)c2ccc(Oc3ccnc4[nH]nc(N[C@@H]5CCN(C(=O)/C=C/CN(C)C6CC6)C5)c34)cc2)c1 [compound 56]
- IC50 [1]: < 100 nM
- IC50 [2]: 100 to 1000 nM
- IC50 [3]: 1000 to 10000 nM

Structure (SMILES): CN(C/C=C/C(=O)N1CC[C@@H](Nc2n[nH]c3nccc(Oc4ccc(C(=O)Nc5ncccn5)cc4)c23)C1)C1CC1 [compound 63]
- IC50 [1]: 100 to 1000 nM
- IC50 [2]: > 10000 nM
- IC50 [3]: > 10000 nM

Structure (SMILES): NC(=O)c1cc(Nc2n[nH]c3nccc(Oc4ccc(Oc5ccccc5)cc4)c23)ccn1 [compound 59]
- IC50 [1]: 100 to 1000 nM
- IC50 [2]: < 100 nM
- IC50 [3]: 100 to 1000 nM

Structure (SMILES): CCC(=O)N1CCC[C@@H](Nc2n[nH]c3ncnc(Oc4ccc(Oc5ccccc5)cc4)c23)C1 [compound 51]
- IC50 [1]: 100 to 1000 nM
- IC50 [2]: 100 to 1000 nM
- IC50 [3]: < 100 nM

Structure (SMILES): CN(C/C=C/C(=O)N1CC[C@@H](Nc2n[nH]c3nccc(Oc4ccc(C(=O)Nc5ncc[nH]5)cc4)c23)C1)C1CC1 [compound 67]
- IC50 [1]: 100 to 1000 nM
- IC50 [2]: > 10000 nM
- IC50 [3]: > 10000 nM

Structure (SMILES): N#C/C(=C\c1ncc[nH]1)C(=O)N1CC[C@@H](Nc2n[nH]c3nccc(Oc4ccc(Oc5ccccc5)cc4)c23)C1 [compound 28, (2E)-3-(1H-imidazol-2-yl)-2-[(E)-(3R)-3-{[4-(4-phenoxyphenoxy)-1H-pyrazolo[3,4-b]pyridin-3-yl]amino}pyrrolidine-1-carbonyl]prop-2-enentrile]
- IC50 [1]: < 100 nM
- IC50 [2]: 100 to 1000 nM
- IC50 [3]: < 100 nM

Structure (SMILES): CCC(=O)N1CC[C@@H](Nc2n[nH]c3nccc(Oc4ccc(C(=O)Nc5nccc(=O)[nH]5)cc4)c23)C1 [compound 74, N-(6-oxo-1,6-dihydropyrimidin-2-yl)-4-[(3-{[(3R)-1-propanoylpyrrolidin-3-yl]amino}-1H-pyrazolo[3,4-b]pyridin-4-yl)oxy]benzamide]
- IC50 [1]: > 10000 nM
- IC50 [2]: > 10000 nM
- IC50 [3]: > 10000 nM

Structure (SMILES): CN(C)C/C=C/C(=O)N1CCC[C@@H](Nc2n[nH]c3nccc(Oc4cccc(Oc5ccccc5)c4)c23)C1 [compound 13, (2E)-4-(dimethylamino)-1-[(3R)-3-{[4-(3-phenoxyphenoxy)-1H-pyrazolo[3,4-b]pyridin-3-yl]amino}piperidin-1-yl]but-2-en-1-one]
- IC50 [1]: < 100 nM
- IC50 [2]: 100 to 1000 nM
- IC50 [3]: 100 to 1000 nM

Structure (SMILES): CN(C/C=C/C(=O)N1CC[C@@H](Nc2n[nH]c3nccc(Oc4ccc(C(=O)Nc5ccccn5)cc4)c23)C1)C1CC1 [compound 55]
- IC50 [1]: < 100 nM
- IC50 [2]: 1000 to 10000 nM
- IC50 [3]: > 10000 nM

Structure (SMILES): CN(C/C=C/C(=O)N1CC[C@@H](Nc2n[nH]c3ncnc(Oc4ccc(Oc5ccccc5)cc4)c23)C1)C1CC1 [compound 48]
- IC50 [1]: 100 to 1000 nM
- IC50 [2]: 1000 to 10000 nM
- IC50 [3]: 100 to 1000 nM

Structure (SMILES): CN(C)C/C=C/C(=O)N1CC[C@@H](Nc2n[nH]c3nccc(Oc4cccc(Oc5ccccc5)c4)c23)C1 [compound 12, (2E)-4-(dimethylamino)-1-[(3R)-3-{[4-(3-phenoxyphenoxy)-1H-pyrazolo[3,4-b]pyridin-3-yl]amino}pyrrolidin-1-yl]but-2-en-1-one]
- IC50 [1]: < 100 nM
- IC50 [2]: 1000 to 10000 nM
- IC50 [3]: 1000 to 10000 nM

Structure (SMILES): N#Cc1ccnc(NC(=O)c2ccc(Oc3ccnc4[nH]nc(N[C@@H]5CCCN(C(=O)C6CC6)C5)c34)cc2)c1 [compound 81, N-(4-cyanopyridin-2-yl)-4-[(3-{[(3R)-1-cyclopropanecarbonylpiperidin-3-yl]amino}-1H-pyrazolo[3,4-b]pyridin-4-yl)oxy]benzamide]
- IC50 [1]: < 100 nM
- IC50 [2]: 100 to 1000 nM
- IC50 [3]: 1000 to 10000 nM

Structure (SMILES): CN1CCC(C(=O)N2CCC[C@@H](Nc3n[nH]c4nccc(Oc5ccc(-c6nc7ccccc7s6)cc5)c34)C2)CC1 [compound 197, (3R)-N-{4-[4-(1,3-benzothiazol-2-yl)phenoxy]-1H-pyrazolo[3,4-b]pyridin-3-yl}-1-(1-methylpiperidine-4-carbonyl)piperidin-3-amine]
- IC50 [1]: 100 to 1000 nM
- IC50 [2]: 100 to 1000 nM
- IC50 [3]: > 10000 nM

Structure (SMILES): CN(C/C=C/C(=O)N1CC[C@@H](Nc2n[nH]c3nccc(Oc4cccc(Oc5ccccc5)c4)c23)C1)C1CC1 [compound 11, (2E)-4-[cyclopropyl(methyl)amino]-1-[(3R)-3-{[4-(3-phenoxyphenoxy)-1H-pyrazolo[3,4-b]pyridin-3-yl]amino}pyrrolidin-1-yl]but-2-en-1-one]
- IC50 [1]: < 100 nM
- IC50 [2]: 1000 to 10000 nM
- IC50 [3]: 1000 to 10000 nM

Structure (SMILES): CN(C)C/C=C/C(=O)N1CC[C@@H](Nc2n[nH]c3nccc(Oc4ccc(-c5ncco5)c(Cl)c4)c23)C1 [compound 16, (2E)-1-[(3R)-3-({4-[3-chloro-4-(1,3-oxazol-2-yl)phenoxy]-1H-pyrazolo[3,4-b]pyridin-3-yl}amino)pyrrolidin-1-yl]-4-(dimethylamino)but-2-en-1-one]
- IC50 [1]: 100 to 1000 nM
- IC50 [2]: 1000 to 10000 nM
- IC50 [3]: 1000 to 10000 nM

Structure (SMILES): C=CC(=O)N1CC[C@@H](Nc2c[nH]c3nccc(Oc4ccc(Cl)cc4)c23)C1 [compound 7, 1-[(3R)-3-{[4-(4-chlorophenoxy)-1H-pyrrolo[2,3-b]pyridin-3-yl]amino}pyrrolidin-1-yl]prop-2-en-1-one]
- IC50 [1]: < 100 nM
- IC50 [2]: 1000 to 10000 nM
- IC50 [3]: 1000 to 10000 nM

Structure (SMILES): N#C/C(=C\c1ccccc1)C(=O)N1CC[C@@H](Nc2n[nH]c3nccc(Oc4ccc(Oc5ccccc5)cc4)c23)C1 [compound 19, (2E)-2-[(E)-(3R)-3-{[4-(4-phenoxyphenoxy)-1H-pyrazolo[3,4-b]pyridin-3-yl]amino}pyrrolidine-1-carbonyl]-3-phenylprop-2-enenitrile]
- IC50 [1]: < 100 nM
- IC50 [2]: 100 to 1000 nM
- IC50 [3]: 100 to 1000 nM

Structure (SMILES): CN(C)c1ccnc(NC(=O)c2ccc(Oc3ccnc4[nH]nc(N[C@@H]5CCN(C(=O)/C=C/CN(C)C6CC6)C5)c34)cc2)c1 [compound 68]
- IC50 [1]: < 100 nM
- IC50 [2]: 1000 to 10000 nM
- IC50 [3]: > 10000 nM

From US9580416B2, “Inhibitors of Bruton's tyrosine kinase” (PHARMACYCLICS LLC, priority 2014, dated 2017)
